These results are taken from PubChem BioAssay AID212 (DTP/NCI, 2004).

Structures are written as SMILES. Values joined by “and” are separate entries in the source; they are usually repeats but may differ in a detail not shown here. Identical values can stand only once. Results filed as inconclusive are left out.

The assay concerns BDF1 mice, colon carcinoma 38 sc, T/C %. Nature of the assay: NCI In Vivo Anticancer Drug Screen. Data for tumor model Colon Carcinoma 38 (subcutaneous) in B6D2F1 (BDF1) mice. The note with it: endpoint: median tumor weight (est.), higher = larger tumour. The procedure, abridged: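 Mice with transplanted tumors are treated with compound or vehicle. Survival or tumor size is then measured in both groups. The ratio of treated to control gives the reported figure.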

Where [1] appears, read: dose: 25.0 mg/kg/injection, schedule: Q07DX002 (ip), vehicle: Klucel (hydroxypropylcellulose) (HPC).
Where [2] appears, read: dose: 50.0 mg/kg/injection, schedule: Q07DX002 (ip), vehicle: Klucel (hydroxypropylcellulose) (HPC).
Where [3] appears, read: dose: 100.0 mg/kg/injection, schedule: Q07DX002 (ip), vehicle: Klucel (hydroxypropylcellulose) (HPC).
[4] abbreviates: dose: 200.0 mg/kg/injection, schedule: Q07DX002 (ip), vehicle: Klucel (hydroxypropylcellulose) (HPC).
The mark [5] stands for this setting: dose: 400.0 mg/kg/injection, schedule: Q07DX002 (ip), vehicle: Klucel (hydroxypropylcellulose) (HPC).
Setting [6] is: dose: 12.5 mg/kg/injection, schedule: Q07DX002 (ip), vehicle: saline.
Where [7] appears, read: dose: 25.0 mg/kg/injection, schedule: Q07DX002 (ip), vehicle: saline.
[8] abbreviates: dose: 50.0 mg/kg/injection, schedule: Q07DX002 (ip), vehicle: saline.
[9] abbreviates: dose: 100.0 mg/kg/injection, schedule: Q07DX002 (ip), vehicle: saline.
Setting [10] is: dose: 200.0 mg/kg/injection, schedule: Q07DX002 (ip), vehicle: saline.
Setting [11] is: dose: 400.0 mg/kg/injection, schedule: Q07DX002 (ip), vehicle: saline.
The mark [12] stands for this setting: dose: 1600.0 mg/kg/injection, schedule: Q07DX002 (ip), vehicle: saline.
Setting [13] is: dose: 12.5 mg/kg/injection, schedule: Q07DX002 (ip), vehicle: saline with Tween-80.
Where [14] appears, read: dose: 100.0 mg/kg/injection, schedule: Q07DX002 (ip), vehicle: saline with Tween-80.
Setting [15] is: dose: 200.0 mg/kg/injection, schedule: Q07DX002 (ip), vehicle: saline with Tween-80.
Where [16] appears, read: dose: 50.0 mg/kg/injection, schedule: Q07DX002 (ip), vehicle: saline with Tween-80.
Setting [17] is: dose: 800.0 mg/kg/injection, schedule: Q07DX002 (ip), vehicle: saline.

As to `Oc1c(Cl)cc(Cl)cc1C1N2CCCCC2C2c3cccn3-c3ccccc3N21` (stereo unspecified), the T/C is 82 % of control under setting [1]; 102 % of control under setting [2]; 69 % of control under setting [3]; 104 % of control under setting [4]; 67 % of control under setting [5].

For the compound `CC1=NNC(=O)C1CCO` (stereo unspecified), the T/C is 97 % of control under setting [1]; 95 % of control under setting [2]; 69 % of control under setting [3]; 72 % of control under setting [4]; 55 % of control under setting [5]; 77 % of control (dose: 800.0 mg/kg/injection, schedule: Q07DX002 (ip), vehicle: Klucel (hydroxypropylcellulose) (HPC)).

As to `Cc1cc2c(c3oc(C4(C)OC4C4OC4C)cc(=O)c13)C(=O)c1c(O)c(C3CC(C)(N(C)C)C(O)C(C)O3)cc(C3CC(N(C)C)C(O)C(C)O3)c1C2=O` (stereo unspecified), the T/C was 62 % of control (dose: 3.75 micrograms/kg/injection, schedule: Q07DX002 (ip), vehicle: Klucel (hydroxypropylcellulose) (HPC)); 90 % of control (dose: 7.5 micrograms/kg/injection, schedule: Q07DX002 (ip), vehicle: Klucel (hydroxypropylcellulose) (HPC)); 99 % of control (dose: 15.0 micrograms/kg/injection, schedule: Q07DX002 (ip), vehicle: Klucel (hydroxypropylcellulose) (HPC)); 57 % of control (dose: 30.0 micrograms/kg/injection, schedule: Q07DX002 (ip), vehicle: Klucel (hydroxypropylcellulose) (HPC)).

In the case of `CN(C)c1ncnc2c1ncn2C1OC(CO)C(N)C1O` (stereo unspecified), the T/C is 110 % of control under setting [6]; 85 % of control under setting [7]; 105 % of control under setting [8]; 106 % of control under setting [9]; 63 % of control under setting [10].

Regarding `Nc1n[nH]c(N)n1`, the T/C reads like this: under setting [9], 84 % of control and 90 % of control and 105 % of control; (dose: 100.0 mg/kg/injection, schedule: Q07DX003 (ip), vehicle: saline with Tween-80) 56 % of control; under setting [11], 65 % of control and 69 % of control and 71 % of control; (dose: 400.0 mg/kg/injection, schedule: Q07DX003 (ip), vehicle: saline with Tween-80) 110 % of control; (dose: 800.0 mg/kg/injection, schedule: Q07DX003 (ip), vehicle: saline with Tween-80) 102 % of control; under setting [12], 71 % of control and 73 % of control and 81 % of control.

On to `O=C1NC2(CCCCC2)C(=O)N1CCN(CCCl)CCCl`, for which the T/C is, setting by setting: (dose: 8.0 mg/kg/injection, schedule: Q07DX003 (ip), vehicle: Klucel (hydroxypropylcellulose) (HPC)) 60 % of control; (dose: 16.0 mg/kg/injection, schedule: Q07DX003 (ip), vehicle: Klucel (hydroxypropylcellulose) (HPC)) 69 % of control and 88 % of control; (dose: 32.0 mg/kg/injection, schedule: Q07DX003 (ip), vehicle: Klucel (hydroxypropylcellulose) (HPC)) 38 % of control and 62 % of control; (dose: 64.0 mg/kg/injection, schedule: Q07DX003 (ip), vehicle: Klucel (hydroxypropylcellulose) (HPC)) 28 % of control.

Consider `O=Cc1ccc(C(Cl)(Cl)Cl)cc1`, for which the T/C under setting [13] was 47 % of control; the T/C under setting [6] was 78 % of control; the T/C (dose: 25.0 mg/kg/injection, schedule: Q07DX002 (ip), vehicle: saline with Tween-80) is 74 % of control; the T/C under setting [7] is 79 % of control; the T/C under setting [8] is 74 % of control; the T/C under setting [14] was 93 % of control. Moreover, the T/C under setting [9] is 88 % of control, the T/C under setting [15] is 66 % of control, the T/C under setting [10] was 67 % of control and the T/C under setting [11] is 82 % of control.

Turning to `C(CC1CO1)C1CO1` (stereo unspecified), the T/C (dose: 5.0 mg/kg/injection, schedule: Q07DX002 (ip), vehicle: Klucel (hydroxypropylcellulose) (HPC)) is 172 % of control and 185 % of control; the T/C (dose: 10.0 mg/kg/injection, schedule: Q07DX002 (ip), vehicle: Klucel (hydroxypropylcellulose) (HPC)) was 106 % of control; the T/C (dose: 40.0 mg/kg/injection, schedule: Q07DX002 (ip), vehicle: Klucel (hydroxypropylcellulose) (HPC)) is 245 % of control; the T/C (dose: 80.0 mg/kg/injection, schedule: Q07DX002 (ip), vehicle: Klucel (hydroxypropylcellulose) (HPC)) was 115 % of control; the T/C (dose: 160.0 mg/kg/injection, schedule: Q07DX002 (ip), vehicle: Klucel (hydroxypropylcellulose) (HPC)) is 81 % of control.

In the case of `CCc1nc(N)nc(N)c1-c1ccc(Cl)c([N+](=O)[O-])c1`, the T/C is, setting by setting: (dose: 3.12 mg/kg/injection, schedule: Q07DX002 (ip), vehicle: saline with Tween-80) 70 % of control; (dose: 6.25 mg/kg/injection, schedule: Q07DX002 (ip), vehicle: saline with Tween-80) 65 % of control and 77 % of control; under setting [13], 97 % of control and 103 % of control; under setting [16], 45 % of control and 62 % of control; under setting [14], 52 % of control.

For the compound `COc1ccc2c(NCCCCCCNc3c4ccccc4nc4cc(OC)ccc34)c3ccccc3nc2c1`, the T/C by setting is: (dose: 0.31 mg/kg/injection, schedule: Q07DX002 (ip), vehicle: lactic acid) 54 % of control; (dose: 0.32 mg/kg/injection, schedule: Q07DX002 (ip), vehicle: lactic acid) 72 % of control.

In the case of `Cc1oc2c(C)c3oc(=O)cc(C)c3cc2c1CCl`, the T/C runs as follows: under setting [13], 77 % of control and 89 % of control; under setting [16], 74 % of control and 77 % of control; under setting [15], 53 % of control; (dose: 400.0 mg/kg/injection, schedule: Q07DX002 (ip), vehicle: saline with Tween-80) 94 % of control.

In the case of `CNC(=O)OCc1c(COC(=O)NC)c(-c2ccc(Cl)c(Cl)c2)n2c1Cc1ccccc1C2`, the T/C (dose: 50.0 mg/kg/injection, schedule: Q07DX002 (ip), vehicle: distilled water + Tween-80) was 86 % of control; the T/C (dose: 100.0 mg/kg/injection, schedule: Q07DX002 (ip), vehicle: distilled water + Tween-80) was 81 % of control; the T/C (dose: 200.0 mg/kg/injection, schedule: Q07DX002 (ip), vehicle: distilled water + Tween-80) is 65 % of control.

In the case of `C1CN2CCC1CC2`, the T/C was 101 % of control (dose: 3.12 mg/kg/injection, schedule: Q07DX003 (ip), vehicle: saline) and 78 % of control (dose: 6.25 mg/kg/injection, schedule: Q07DX003 (ip), vehicle: saline).

Turning to `COc1cc2cc3c4cc(OC)c(OC)cc4cc[n+]3c(C)c2cc1OC` (tested in a mixture with another compound), the T/C reads like this: (dose: 50.0 mg/kg/injection, schedule: Q07DX003 (ip), vehicle: saline) 164 % of control; (dose: 100.0 mg/kg/injection, schedule: Q07DX003 (ip), vehicle: saline) 77 % of control and 96 % of control; (dose: 400.0 mg/kg/injection, schedule: Q07DX003 (ip), vehicle: saline) 53 % of control.

`COC(=O)c1ccoc1`: the T/C runs as follows: under setting [7], 105 % of control; under setting [8], 94 % of control; under setting [10], 118 % of control; under setting [11], 112 % of control.

On to `COC(=O)C(N)Cc1ccc(O)c(O)c1` (stereo unspecified), for which the T/C reads like this: under setting [8], 85 % of control; under setting [9], 113 % of control; under setting [10], 88 % of control; under setting [11], 99 % of control; under setting [17], 110 % of control; under setting [12], 51 % of control.

Consider `O=[N+]([O-])c1nccn1CC(O)CO` (stereo unspecified), for which the T/C was 120 % of control under setting [9] and 105 % of control under setting [17].

With `C[C@@]12C(=O)OC(=O)[C@]1(C)[C@H]1CC[C@@H]2O1`, the T/C (dose: 0.12 mg/kg/injection, schedule: Q07DX002 (ip), vehicle: Klucel (hydroxypropylcellulose) (HPC)) was 88 % of control; the T/C (dose: 0.25 mg/kg/injection, schedule: Q07DX002 (ip), vehicle: Klucel (hydroxypropylcellulose) (HPC)) was 65 % of control; the T/C (dose: 0.5 mg/kg/injection, schedule: Q07DX002 (ip), vehicle: Klucel (hydroxypropylcellulose) (HPC)) is 69 % of control; the T/C (dose: 1.0 mg/kg/injection, schedule: Q07DX002 (ip), vehicle: Klucel (hydroxypropylcellulose) (HPC)) was 76 % of control; the T/C (dose: 2.0 mg/kg/injection, schedule: Q07DX002 (ip), vehicle: Klucel (hydroxypropylcellulose) (HPC)) was 86 % of control.
